Laboratory results published in ChEMBL document CHEMBL4184312, “Discovery of novel CDK inhibitors via scaffold hopping from CAN508” (Bioorg Med Chem Lett, 2018).

Key:
[1] = molecular target: CDK9/cyclin T1 (Homo sapiens) (UniProt O60563+P50750); assay: Inhibition of recombinant human CDK9/cyclin T1 at 10 uM using Ulight-CFFKNIVTPRTPPPSQGK-amide as substrate after 90 mins by fluorescence assay relative to control; type: protein-complex assay
[2] = molecular target: CDK2/Cyclin A2 (Homo sapiens) (UniProt P24941+P20248); assay: Inhibition of recombinant human CDK2/cyclin A at 10 uM using Ulight-CFFKNIVTPRTPPPSQGK-amide as substrate after 15 mins by fluorescence assay relative to control; type: protein-complex assay
[3] = molecular target: CDK2/Cyclin A2 (Homo sapiens, UniProt P24941); assay: Inhibition of recombinant human CDK2/cyclin A using Ulight-CFFKNIVTPRTPPPSQGK-amide as substrate after 15 mins by fluorescence assay relative to control; type: protein-complex assay
[4] = molecular target: CDK9/cyclin T1 (Homo sapiens, UniProt P50750); assay: Inhibition of recombinant human CDK9/cyclin T1 using Ulight-CFFKNIVTPRTPPPSQGK-amide as substrate after 90 mins by fluorescence assay relative to control; type: protein-complex assay
Sequence of CDK9/cyclin T1 (O60563 whole entry): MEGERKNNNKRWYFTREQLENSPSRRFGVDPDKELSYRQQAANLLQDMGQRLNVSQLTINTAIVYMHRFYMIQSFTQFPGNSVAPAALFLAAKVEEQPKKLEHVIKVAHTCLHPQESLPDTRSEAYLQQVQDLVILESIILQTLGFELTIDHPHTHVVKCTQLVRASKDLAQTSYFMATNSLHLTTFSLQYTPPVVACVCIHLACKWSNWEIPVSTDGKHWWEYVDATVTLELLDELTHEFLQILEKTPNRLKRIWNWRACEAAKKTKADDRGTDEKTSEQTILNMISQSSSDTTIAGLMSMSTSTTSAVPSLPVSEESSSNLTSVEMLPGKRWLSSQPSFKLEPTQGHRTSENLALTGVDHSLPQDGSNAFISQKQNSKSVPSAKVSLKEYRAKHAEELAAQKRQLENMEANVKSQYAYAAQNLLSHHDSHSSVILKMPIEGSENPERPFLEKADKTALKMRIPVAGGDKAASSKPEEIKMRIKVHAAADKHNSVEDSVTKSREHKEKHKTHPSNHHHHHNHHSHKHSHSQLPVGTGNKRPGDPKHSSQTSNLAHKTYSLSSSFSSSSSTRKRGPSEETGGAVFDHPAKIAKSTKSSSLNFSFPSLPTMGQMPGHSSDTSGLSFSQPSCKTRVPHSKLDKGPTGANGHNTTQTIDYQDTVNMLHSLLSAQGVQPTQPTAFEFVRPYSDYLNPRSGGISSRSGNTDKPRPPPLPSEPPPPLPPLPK
Sequence of CDK9/cyclin T1 (P50750 whole entry): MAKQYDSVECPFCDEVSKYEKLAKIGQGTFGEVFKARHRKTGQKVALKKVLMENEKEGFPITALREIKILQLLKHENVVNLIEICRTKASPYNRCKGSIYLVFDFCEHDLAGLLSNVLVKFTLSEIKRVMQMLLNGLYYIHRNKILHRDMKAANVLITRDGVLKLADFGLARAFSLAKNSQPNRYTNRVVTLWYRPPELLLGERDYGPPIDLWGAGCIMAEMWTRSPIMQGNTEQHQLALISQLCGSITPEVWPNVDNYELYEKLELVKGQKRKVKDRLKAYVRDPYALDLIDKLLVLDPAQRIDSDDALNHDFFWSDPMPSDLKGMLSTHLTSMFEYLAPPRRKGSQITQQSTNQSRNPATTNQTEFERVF

[5] = organism: Homo sapiens; assay: Selectivity ratio of IC50 for recombinant human CDK9/cyclin T1 to IC50 for recombinant human CDK2/cyclin A

inhibition [1] | inhibition [2] | IC50 [3] | IC50 [4] | Ratio IC50 [5] | SMILES
32% | < 10% | – | – | – | O=C(Nc1n[nH]c2ncc(-c3ccc(F)cc3)cc12)C1CCCCC1
62% | 63% | – | – | – | O=C(Nc1n[nH]c2ncc(-c3cccc(O)c3)cc12)C1CCCCC1
64% | 39% | – | – | – | CNCCC(=O)Nc1n[nH]c2ncc(-c3ccc(O)cc3)cc12
12% | 63% | 2000 nM | 529000 nM | 265 | CCC(CC)C(=O)Nc1n[nH]c2ncc(-c3ccc(O)cc3)cc12
78% | 80% | – | 3600 nM | – | O=C(Nc1n[nH]c2ncc(-c3ccccc3O)cc12)C1CCCCC1
31% | 34% | – | – | – | O=C(Nc1n[nH]c2ncc(-c3ccc(CO)cc3)cc12)C1CCCCC1
59% | 59% | – | – | – | O=C(Nc1n[nH]c2ncc(-c3ccncc3)cc12)C1CCCCC1
25% | 70% | – | – | – | O=C(Cc1ccccc1)Nc1n[nH]c2ncc(-c3ccc(O)cc3)cc12
< 10% | < 10% | – | – | – | O=C(Nc1n[nH]c2ncc(-c3ccc([N+](=O)[O-])cc3)cc12)C1CCCCC1

Continued, compound first:

SMILES | inhibition [1] | inhibition [2] | IC50 [3] | IC50 [4] | Ratio IC50 [5]
COc1ccc(-c2cnc3[nH]nc(N)c3c2)cc1 | < 10% | < 10% | – | – | –
Nc1n[nH]c2ncc(-c3ccc(F)cc3)cc12 | 38% | 51% | – | – | –
CN(C)CC(=O)Nc1n[nH]c2ncc(-c3ccc(O)cc3)cc12 | 56% | 52% | – | – | –
CCC(=O)Nc1n[nH]c2ncc(-c3ccc(O)cc3)cc12 | 70% | 90% | 820 nM | 2400 nM | –
CN1CCN(CCC(=O)Nc2n[nH]c3ncc(-c4ccc(O)cc4)cc23)CC1 | 49% | 51% | – | – | –
CN(C)CCC(=O)Nc1n[nH]c2ncc(-c3ccc(O)cc3)cc12 | 48% | 59% | – | – | –
Nc1n[nH]c(N)c1/N=N/c1ccc(O)cc1 | – | – | 13100 nM | – | –
CCCCC(=O)Nc1n[nH]c2ncc(-c3ccc(O)cc3)cc12 | 73% | 87% | – | 3500 nM | –
O=C(Nc1n[nH]c2ncc(-c3cncnc3)cc12)C1CCCCC1 | 83% | 96% | 360 nM | 1800 nM | –
O=C(CCN1CCOCC1)Nc1n[nH]c2ncc(-c3ccc(O)cc3)cc12 | 21% | 44% | – | – | –
Nc1n[nH]c2ncc(-c3cncnc3)cc12 | 50% | 33% | – | – | –
N#Cc1ccc(-c2cnc3[nH]nc(NC(=O)C4CCCCC4)c3c2)cc1 | < 10% | < 10% | – | – | –
CC(C)c1ccc(-c2cnc3[nH]nc(N)c3c2)cc1 | < 10% | < 10% | – | – | –
CC(C)CC(=O)Nc1n[nH]c2ncc(-c3ccc(O)cc3)cc12 | 19% | 54% | – | – | –
Nc1n[nH]c2ncc(-c3ccc(O)cc3)cc12 | 48% | 58% | – | – | –
O=C(CCCl)Nc1n[nH]c2ncc(-c3ccc(O)cc3)cc12 | 73% | 98% | 660 nM | 2400 nM | –
CNCC(=O)Nc1n[nH]c2ncc(-c3ccc(O)cc3)cc12 | 64% | 68% | – | – | –
CC(C)(C)CC(=O)Nc1n[nH]c2ncc(-c3ccc(O)cc3)cc12 | 59% | 77% | – | – | –
O=C(O)c1ccc(-c2cnc3[nH]nc(NC(=O)C4CCCCC4)c3c2)cc1 | < 10% | < 10% | – | – | –
O=C(Nc1n[nH]c2ncc(-c3ccc(O)cc3)cc12)C1CCCCC1 | 70% | 86% | – | 10400 nM | –
